What was measured:
[1] = General cytotoxicity on primary differentiated HepaRG cells (72 h); assay type: cell-based; settings: human, general toxicity, mean value from several measurements
Method in brief: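 Differentiated HepaRG cells, maintained a week in basal hepatic medium with maintenance/metabolism supplement, were plated at 25×10^3 cells/well overnight. Compounds (200 μM to 0.2 nM) were added for 72 h before viability readout.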

[2] = Microsomal stability in human liver microsomes (HLM); assay type: in vitro ADME; settings: 1 μM test compound
Procedure: The procedure for investigating the metabolism of selected compounds was carried out in microsomal fractions of the liver (of rats, mice, humans) in the presence of a phase I metabolism cofactor (NADPH).
The rate of enzymatic decomposition of the compound in liver microsomes in in vitro analysis was determined by keeping a reaction mixture comprising 0.5 mg/ml of pooled human, rat or mouse liver microsomes, 1 μM test compound, 1.5 mM […] (Carbosynth, UK, cat. no. NN108711101) and 1.5 mM magnesium chloride in 0.1 M sodium phosphate buffer (pH 7.4) in a solid-state thermostat at 37° C. (XenoTech, USA, order no. H2610, cat. no. R1000, cat. no. M1000). Incubation was carried out in three replicates.
To determine the stability of compounds under sample preparation conditions, an aliquot in two replicates with the test compound and a microsomal fraction devoid of the NADPH cofactor, which was incubated for 40 minutes at 37° C.
Reactions were stopped at 0, 10, 20, 30 and 40 min time points by way of adding an ice mixture of acetonitrile:methanol (3:1) comprising an internal standard.
Samples were then centrifuged to remove the precipitated protein, supernatants were analyzed using HPLC-MS/MS to determine in vitro clearance (CLint) of the compounds. The Agilent 6410 mass spectrometer (Agilent, USA) combined with the Agilent 1260 Infinity II HPLC liquid chromatograph (Agilent, USA) and a cooling autosampler controlled by MassHunter software (Agilent, USA) was used as an HPLC-MS/MS system. Chromatographic analysis was performed on a C18 reversed-phase HPLC column (Agilent, Waters or equivalent) in a gradient elution mode in a system of mobile phases: 0.1% formic acid in water/0.1% formic acid in acetonitrile, flow rate: 0.5 ml/min, column T=35° C. Mass spectrometric detection was performed with electrospray ionization in multiple reaction monitoring mode. Precursor ions, fragment ions and collision energies for each substance were selected experimentally.
A graph of dependence of the logarithmic ratio between substance's peak area and internal standard's peak area vs time was built. The dependent coefficient of this line corresponded to the elimination rate constant k, on the basis of which the in vitro clearance CLint was calculated:
Based on resulting in vitro clearance CLint values, the microsomal stability of the selected compounds for humans, rats and mice was concluded.

[3] = system: NCl-H82 (small cell lung cancer); assay: Antiproliferative assay on NCl-H82 cells (AlamarBlue, 120 h); assay type: cell-based; settings: mean value from several measurements

In vitro clearance CLint (HLM) [2] | IC50 [3] [µM] | SMILES | CC50 at 72 h [1] [µM]
A (Clint < 20 μl/(min · mg of protein)) | > 1 | Cn1cc(N2CCCc3c(-c4nc(N[C@H]5CCCNC5)ncc4C(F)(F)F)c[nH]c3C2=O)cn1 [CDK7_955, 7-(1-methyl-1H-pyrazol-4-yl)-3-(2-{[(3S)-piperidin-3-yl]amino}-5-(trifluoromethyl)py-rimidin-4-yl)-1H,4H,5H,6H,7H, 8H-pyrrolo[2,3-c]azepin-8-one] | > 2
 | 0.01 to 0.1 | CCN1CCCc2c(-c3nc(N[C@H]4CCC(C)(C)NC4)ncc3C(F)(F)F)c[nH]c2C1=O [CDK7_1259, 3-(2-{[(3S)-6,6-dimethylpiperidin-3-yl]amino}-5-(trifluoromethyl)py-rimidin-4-yl)-7-ethyl-1H,4H,5H,6H,7H, 8H-pyrrolo[2,3-c]azepin-8-one] | > 2
A (Clint < 20 μl/(min · mg of protein)) | 0.01 to 0.1 | CC1(C)CC[C@H](Nc2ncc(C(F)(F)F)c(-c3c[nH]c4c3CCCN(C3CC3)C4=O)n2)CN1 [CDK7_1225, 7-cyclopropyl-3-(2-{[(3S)-6,6-dimethylpiperidin-3-yl]amino}-5-(trifluoromethyl)py-rimidin-4-yl)-1H,4H,5H,6H,7H, 8H-pyrrolo[2,3-c]azepin-8-one] | > 2
A (Clint < 20 μl/(min · mg of protein)) | < 0.01 | O=C1c2[nH]cc(-c3nc(NC4CCCNC4)ncc3C(F)(F)F)c2CCCN1C1CC1 (centres unmarked) [CDK7_1188] | > 2
A (Clint < 20 μl/(min · mg of protein)) | 0.01 to 0.1 | Cn1cc(-n2ccc3c(-c4nc(N[C@H]5CCC(C)(C)NC5)ncc4C(F)(F)F)c[nH]c3c2=O)cn1 [CDK7_1123, 3-(2-{[(3S)-6,6-dimethylpiperidin-3-yl]amino}-5-(trifluoromethyl)py-rimidin-4-yl)-6-(1-methyl-1H-pyrazol-4-yl)-1H,6H,7H-pyrrolo[2,3-c]pyridin-7-one] | > 2
A (Clint < 20 μl/(min · mg of protein)) | < 0.01 | O=c1c2[nH]cc(-c3nc(N[C@H]4CCCNC4)ncc3C(F)(F)F)c2ccn1Cc1ccccc1 [CDK7_961, 6-benzyl-3-(2-{[(3S)-piperidin-3-yl]amino}-5-(trifluoromethyl)py-rimidin-4-yl)-1H,6H,7H-pyrrolo[2,3-c]pyridin-7-one] | 0.1 to 0.5
A (Clint < 20 μl/(min · mg of protein)) |  | O=C1c2[nH]cc(-c3nc(N[C@H]4CCCNC4)ncc3C(F)(F)F)c2CCCN1c1ccccn1 [CDK7_1176, 3-(2-{[(3S)-piperidin-3-yl]amino}-5-(trifluoromethyl)py-rimidin-4-yl)-7-(pyridin-2-yl)-1H,4H,5H,6H,7H, 8H-pyrrolo[2,3-c]azepin-8-one] | > 2
A (Clint < 20 μl/(min · mg of protein)) |  | Cn1cc(N2CCCc3c(-c4nc(N[C@H]5CCC(C)(C)NC5)ncc4C(F)(F)F)c[nH]c3C2=O)cn1 [CDK7_1122, 3-(2-{[(3S)-6,6-dimethylpiperidin-3-yl]amino}-5-(trifluoromethyl)py-rimidin-4-yl)-7-(1-methyl-1H-pyrazol-4-yl)-1H,4H,5H,6H,7H, 8H-pyrrolo[2,3-c]azepin-8-one] | > 2
A (Clint < 20 μl/(min · mg of protein)) | < 0.01 | CN1CCCc2c(-c3nc(N[C@H]4CCCNC4)ncc3C(F)(F)F)c[nH]c2C1=O [CDK7_953, 7-methyl-3-(2-{[(3S)-piperidin-3-yl]amino}-5-(trifluoromethyl)py-rimidin-4-yl)-1H,4H,5H,6H,7H, 8H-pyrrolo[2,3-c]azepin-8-one] | 0.5 to 2
 | 0.01 to 0.1 | CC1(C)CC[C@H](Nc2ncc(C(F)(F)F)c(-c3c[nH]c4c3CCCN(CC3CC3)C4=O)n2)CN1 [CDK7_1227, 7-(cyclopropylmeth-yl)-3-(2-{[(3S)-6,6-dimethylpiperidin-3-yl]amino}-5-(trifluoromethyl)py-rimidin-4-yl)-1H,4H,5H,6H,7H, 8H-pyrrolo[2,3-c]azepin-8-one] | > 2
A (Clint < 20 μl/(min · mg of protein)) | 0.01 to 0.1 | CC1CCc2c(-c3nc(N[C@H]4CCCNC4)ncc3C(F)(F)F)c[nH]c2C(=O)N1C (stereo partly drawn) [CDK7_1254, 6,7-dimethyl-3-(2-{[(3S)-piperidin-3-yl]amino}-5-(trifluoromethyl)py-rimidin-4-yl)-1H,4H,5H,6H,7H, 8H-pyrrolo[2,3-c]azepin-8-one] | > 2
A (Clint < 20 μl/(min · mg of protein)) | < 0.01 | Cn1cc(-n2ccc3c(-c4nc(N[C@H]5CCCNC5)ncc4C(F)(F)F)c[nH]c3c2=O)cn1 [CDK7_959, 6-(1-methyl-1H-pyrazol-4-yl)-3-(2-{[(3S)-piperidin-3-yl]amino}-5-(trifluoromethyl)py-rimidin-4-yl)-1H,6H,7H-pyrrolo[2,3-c]pyridin-7-one] | > 2

SMILES | In vitro clearance CLint (HLM) [2] | IC50 [3] [µM] | CC50 at 72 h [1] [µM]
CC(C)N1CCCc2c(-c3nc(N[C@H]4CCC(C)(C)NC4)ncc3C(F)(F)F)c[nH]c2C1=O [CDK7_1229, 3-(2-{[(3S)-6,6-dimethylpiperidin-3-yl]amino}-5-(trifluoromethyl)py-rimidin-4-yl)-7-(propan-2-yl)-1H,4H,5H,6H,7H, 8H-pyrrolo[2,3-c]azepin-8-one] | B (50 μl/(min · mg of protein) > Clint > 20 μl/(min · mg of protein)) | 0.01 to 0.1 | > 2
CN1CCCc2c(-c3nc(N[C@H]4CCC(C)(C)NC4)ncc3C(F)(F)F)c[nH]c2C1=O [CDK7_1187, 3-(2-{[(3S)-6,6-dimethylpiperidin-3-yl]amino}-5-(trifluoromethyl)py-rimidin-4-yl)-7-methyl-1H,4H,5H,6H,7H, 8H-pyrrolo[2,3-c]azepin-8-one] | B (50 μl/(min · mg of protein) > Clint > 20 μl/(min · mg of protein)) | < 0.01 | > 2
O=C1c2[nH]cc(-c3nc(N[C@H]4CCC5(CC5)NC4)ncc3C(F)(F)F)c2CCCN1C1CC1 [CDK7_1276, 3-(2-{[(6S)-4-azaspiro[2.5]octan-6-yl]amino}-5-(trifluoromethyl)py-rimidin-4-yl)-7-cyclopropyl-1H,4H,5H,6H,7H, 8H-pyrrolo[2,3-c]azepin-8-one] | B (50 μl/(min · mg of protein) > Clint > 20 μl/(min · mg of protein)) | < 0.01 | > 2
O=C1c2[nH]cc(-c3nc(NC4CCCNC4)ncc3C(F)(F)F)c2CCCN1c1nccs1 (centres unmarked) [CDK7_1172] | B (50 μl/(min · mg of protein) > Clint > 20 μl/(min · mg of protein)) | 0.01 to 0.1 | > 2
CC(C)N1CCCc2c(-c3nc(N[C@H]4CCC5(CC5)NC4)ncc3C(F)(F)F)c[nH]c2C1=O [CDK7_1277, 3-(2-{[(6S)-4-azaspiro[2.5]octan-6-yl]amino}-5-(trifluoromethyl)py-rimidin-4-yl)-7-(propan-2-yl)-1H,4H,5H,6H,7H, 8H-pyrrolo[2,3-c]azepin-8-one] | B (50 μl/(min · mg of protein) > Clint > 20 μl/(min · mg of protein)) | < 0.01 | > 2

Source: patent US20260137698A1, “CYCLIN-DEPENDENT KINASE 7 INHIBITORS” (JOINT STOCK COMPANY «BIOCAD», priority 2022, published 2026)
